Assay results from patent US11166940B2, “Treatment of cardiac disorders by blocking SK4 potassium channel” (Ramot at Tel-Aviv University Ltd., priority 2016, dated 2021).

How the values were obtained:
normal hiPSC-CMs = assay: Spontaneous APs in hiPS-CMs derived from normal individuals; assay type: cell-based, human; conditions: 5 μM TRAM-34 added to 3 μM isoproterenol
Method: In all experiments, the coverslips were perfused at 33° C. with an external solution containing (in mM): 140 NaCl, 4 KCl, 11 Glucose, 1.2 MgCl2, 1.8 CaCl2, 5.5 HEPES titrated to pH 7.4 with NaOH and adjusted at 320 mOsm with sucrose.
FIG. 4E (Left) presents representative traces of spontaneous APs recorded in hiPS-CM derived from a normal individual. […] FIG. 4E (Right) are bar graphs presenting data summary of pacing rate (normalized to Ctrl; one-way ANOVA **P=0.0071, n=14), DD slope (paired t-test, ***P<0.0001, n=14) and APD50 (one-way ANOVA *P=0.0243, n=18).

CASQ2-D307H KI mice = assay: In vivo telemetric ECG recording in CASQ2-D307H KI mice; set-up: species or system mouse; conditions: 20 mg/kg IP; for number of mice, most severe ECG form: NSVT / number of mice, most severe ECG form: Normal (sinusal rhythm) / number of mice, most severe ECG form: SVT / number of mice, most severe ECG form: VPC: n=5 Clotrimazole, n=12 TRAM-34
From the text: Telemetric ambulatory long-term ECG recordings, analogous to Holter monitoring in humans, were obtained with implantable transmitters. […] An implantable 3.5 grams wireless radiofrequency transmitter (DSI MM USA, device weight 3.8 grams) was aseptically inserted into a subcutaneous tissue pocket in the back as described in Katz, G., et al. Heart Rhythm 7, 1676-1682 (2010) and Kurtzwald-Josefson, E., et al. Heart Rhythm 11, 1471-1479 (2014)]. Animals were allowed to recover after surgery for at least 24 hours before any experiments. Baseline electrocardiograms (ECG) were obtained 15 minutes after IP injection of the appropriate vehicle (peanut oil or peanut oil supplemented with ethanol 1%). […] Telemetered ECG tracings were obtained in conscious mice at rest for one minute and during peak exercise (i.e. the first minute of recovery). In the treadmill exercise, mice were forced to exercise on a rodent treadmill; gradually increasing the speed up to a maximum of 15 m/minute. Ventricular tachycardia (VT) was defined as four or more consecutive ventricular beats. If this phenotype was consecutively observed for more than 15 seconds, it was defined as “sustained” ventricular tachycardia (SVT). Shorter VTs were characterized as “non-sustained” (NSVT). All other ventricular arrhythmias, such as premature beats, ventricular bigeminy, couplets and triplets were all defined as ventricular premature contractions (VPCs).
A heart telemetry device was implanted in WT, CASQ2-D307H KI and CASQ2 KO mice for continuous ECG recording at rest and during treadmill exercise. For each session, continuous ECG recording was performed with the same animals receiving first intraperitoneal (IP) injection of vehicle (peanut oil) and then the SK4 channel blocker.
The types of arrhythmic features were classified following their seriousness: sinusal rhythm (normal), ventricular premature contractions (VPC), non-sustained ventricular tachycardia (NSVT) and sustained ventricular tachycardia (SVT). For each mouse was considered the most severe form of arrhythmia recorded under ECG.

## Clc1ccccc1C(c1ccccc1)(c1ccccc1)n1cccn1 [TRAM-34, 1-[(2-chlorophenyl)diphenylmethyl]-1H-pyrazole]
Normal hiPSC-CMs
  cells with suppression of the pacing: 10 out of 14
  maximal diastolic potential (MDP): depolarized the maximal diastolic potential
  slope of diastolic depolarization (DD): significantly decreased the slope of diastolic depolarization
CASQ2-D307H KI mice; KI mice at rest, n=12
  PR prolongation: 23%
  heart rate decrease: 24±4%
CASQ2-D307H KI mice; KI mice during treadmill exercise
  sinus rate and PR interval: significant sinus bradycardia and PR interval prolongation
CASQ2-D307H KI mice; KI mice, resting conditions
  mice with ECG arrhythmic features totally suppressed: 9 out of 12
CASQ2-D307H KI mice; KI at rest
  number of mice, most severe ECG form: NSVT: 0
  number of mice, most severe ECG form: Normal (sinusal rhythm): 9
  number of mice, most severe ECG form: SVT: 0
  number of mice, most severe ECG form: VPC: 3
CASQ2-D307H KI mice; KI during Exercise
  number of mice, most severe ECG form: NSVT: 4
  number of mice, most severe ECG form: Normal (sinusal rhythm): 4
  number of mice, most severe ECG form: SVT: 0
  number of mice, most severe ECG form: VPC: 4
